The text below walks through data of patent US20260176260A1, “DUAL RAF AND TUBULIN INHIBITORS AND METHODS OF USE THEREOF” (Deciphera Pharmaceuticals, LLC, priority 2023, published 2026).

The subject of one assay is HCT-116 cells. The experiment in a line: HCT-116 cell proliferation assay (resazurin). Type of assay: cell-based. The conditions noted are these: read-out: HCT-116. In outline: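 HCT-116 cells, 375 per well in McCoy's 5A with 10% FBS, exposed to serially diluted compound in triplicate for 67-72 h at 37 °C. Resazurin added for 4-5 h more; fluorescence (ex 540/em 600 nm) fitted to IC50.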
(In general: Alamar Blue is a resazurin reagent that responds to reducing activity.)

The test system of another assay is Pa16c cells. The experiment in a line: Pa16c cell proliferation assay (resazurin). To be noted: Table 2, inhibition of cell proliferation. Format: cell-based. The procedure, abridged:
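Pa16c cells, 750 per well in DMEM with 10% FBS, exposed to serially diluted compound in triplicate for 67-72 h at 37 °C. Resazurin then added for a further 18-24 h, fluorescence read at Ex 540/Em 600 nm, and IC50 calculated.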

In another assay the target is T1, C-Raf kinase (Homo sapiens, UniProt P04049, Y340D/Y341D).
T1 construct: C-Raf residues 306-end; Y340D, Y341D with N-; purchased Sigma
T1 sequence (P04049 307-648 Y340D/Y341D): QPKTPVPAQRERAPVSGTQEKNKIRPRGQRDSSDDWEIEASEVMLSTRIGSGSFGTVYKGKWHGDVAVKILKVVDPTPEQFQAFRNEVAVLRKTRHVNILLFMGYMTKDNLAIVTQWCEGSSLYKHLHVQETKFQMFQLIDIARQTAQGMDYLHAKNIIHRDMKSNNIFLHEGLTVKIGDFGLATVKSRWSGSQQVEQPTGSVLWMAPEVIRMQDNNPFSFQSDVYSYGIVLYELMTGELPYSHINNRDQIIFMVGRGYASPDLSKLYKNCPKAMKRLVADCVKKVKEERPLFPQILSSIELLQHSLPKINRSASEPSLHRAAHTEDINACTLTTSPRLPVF
The experiment in a line: Biochemical assay for C-Raf (coupled pyruvate kinase/lactate dehydrogenase). To be noted: read-out: CRAF.

Assay [1] deals with tubulin polymerization in HCT-116 cells. The experiment in a line: Cellular tubulin polymerization assay (pellet/supernatant a-tubulin, HCT-116 cells). Format: cell-based. To be noted: Table 3, HCT-116 cells; read-out: Tubulin Cellular. As for the experimental part:
HCT-116 cells (catalog #CCL-247) are obtained from the American Type Culture Collect (ATCC, Manassas, VA). Briefly, cells are grown in McCoy's 5A supplemented with 10% characterized fetal bovine serum (Invitrogen, Carlsbad, CA) and 1% Penicillin/Streptomycin/L-Glutamine at 37° C., 5% CO2, and 95% humidity. Cells are expanded until reaching 70-95% confluency at which point they are sub-cultured or harvested for assay use. 450000 cells are added per well in 1500 μL complete growth medium in a tissue culture treated, 12-well plate. Plates are incubated for 18 to 24 h at 37° C., 5% CO2, and 95% humidity. At the end of the incubation, 2000 μL of base culture media is added to each well, followed by a serial dilution of compound. Plates are incubated for an additional 1 h at 37° C., 5% CO2, and 95% humidity. Lysates are generated by the addition of 100 μL Lysis and Microtubule Stabilization Buffer 1 (LMS01, Cytoskeleton Inc, Denver, CO) supplemented with GTP (BST06, Cytoskeleton Inc), ATP (BSA04, Cytoskeleton Inc), and Protease Inhibitor Cocktail Stock (PIC02, Cytoskeleton Inc). Cells are scraped off wells using a rubber cell scraper and collected in a clean 96-well plate. Lysates are centrifuged at 1000×g, 37° C. for 10 min and supernatant fraction is placed into an additional 96-well plate. The remaining pellet fraction is reconstituted in 100 μL LMS01 buffer and sonicated for 10 min. Pellet and Supernatant fractions are probed for a-tubulin via western blot analysis on the Jess System or equivalent (Bio-techne, Minneapolis, MN). Data is analyzed using Prism software (Graphpad, San Diego, CA) to calculate IC50 values.

The subject of a further assay is HPAF-II cells. The experiment in a line: HPAF-II cell proliferation assay (resazurin). The conditions noted are these: read-out: HPAF-II. Format: cell-based. The procedure, abridged: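 Serial compound dilutions in triplicate with 750 cells/well in complete MEM with 10% FBS, 115 to 120 h at 37° C, 5% CO2. Resazurin then added for 18 to 24 h; fluorescence at ex 540/em 600 nm used to derive IC50.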

Another assay deals with T2, B-Raf kinase (Homo sapiens, UniProt P15056).
T2 construct: purchased Sigma
T2 sequence (P15056 416-766): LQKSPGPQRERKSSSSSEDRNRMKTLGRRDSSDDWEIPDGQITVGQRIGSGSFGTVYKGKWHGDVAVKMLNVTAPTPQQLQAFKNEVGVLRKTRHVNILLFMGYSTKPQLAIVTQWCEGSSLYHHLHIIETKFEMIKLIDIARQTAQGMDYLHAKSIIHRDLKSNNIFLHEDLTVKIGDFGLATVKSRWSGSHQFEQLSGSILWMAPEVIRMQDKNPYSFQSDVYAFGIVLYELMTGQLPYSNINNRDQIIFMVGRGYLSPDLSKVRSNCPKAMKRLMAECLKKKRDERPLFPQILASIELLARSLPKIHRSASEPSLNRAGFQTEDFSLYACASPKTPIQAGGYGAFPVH
The experiment in a line: Biochemical assay for B-Raf (coupled pyruvate kinase/lactate dehydrogenase). The conditions noted are these: read-out: BRAF.

The mark [2] stands for this setting: Homo sapiens, Table 2, inhibition of cell proliferation.
The mark [3] stands for this setting: Table 1, inhibition of biochemical activity.

SMILES strings stand for the structures. Read-outs that look alike come from different tables or passages of the source.

With `CNC(=O)c1cc(-c2cc(-c3cc(NC(=O)c4cc(C5CC5)cnn4)ccc3C)cc(NCCO)n2)ccn1` [Example 27], the IC50 in the assay with HCT-116 cells (setting [2]) is below 100 nM; in the assay with HCT-116 cells (Table 3), below 100 nM; in the assay on Pa16c cells, below 100 nM; on C-Raf kinase (setting [3]), below 100 nM; at C-Raf kinase (Table 3), below 100 nM; in assay [1], 100 to 500 nM. For the same compound, the IC50 in the assay on HPAF-II cells (setting [2]) is 100 to 500 nM; in the assay on HPAF-II cells (Table 3), 100 to 500 nM; at B-Raf kinase (setting [3]), below 100 nM; on B-Raf kinase (Table 3), below 100 nM.
As for `CNC(=O)c1cc(-c2cc(-c3cc(NC(=O)c4cc(C5CC5)cnn4)ccc3C)ccn2)ccn1` [Example 26], the IC50 is 100 to 500 nM in the assay on HCT-116 cells (setting [2]); 100 to 500 nM in the assay on HCT-116 cells (Table 3); 100 to 500 nM in the assay with Pa16c cells; below 100 nM on C-Raf kinase (setting [3]); below 100 nM at C-Raf kinase (Table 3); 100 to 500 nM in assay [1]. Moreover, the IC50 was 100 to 500 nM in the assay on HPAF-II cells (setting [2]), 100 to 500 nM in the assay on HPAF-II cells (Table 3), below 100 nM at B-Raf kinase (setting [3]) and below 100 nM on B-Raf kinase (Table 3).
Turning to `CNC(=O)c1cc(-c2cc(-c3cc(NC(=O)c4cc(C(F)(F)F)cnn4)ccc3C)cc(C)n2)ccn1` [Example 2, N,6-dimethyl-4-(2-methyl-5-(5-(trifluoromethyl)pyridazine-3-carboxamido)phenyl)-[2,4′-bipyridine]-2′-carboxamide], the IC50 with HCT-116 cells (setting [2]) is 500 to 1000 nM; in the assay on HCT-116 cells (Table 3) it was 500 to 1000 nM; in the assay on Pa16c cells it was 500 to 1000 nM; on C-Raf kinase (setting [3]), below 100 nM; on C-Raf kinase (Table 3) it was below 100 nM; in assay [1] it was 100 to 500 nM. For the same compound, the IC50 in the assay with HPAF-II cells (setting [2]) was in the range of 500 to 1000 nM; in the assay on HPAF-II cells (Table 3) it was 500 to 1000 nM; at B-Raf kinase (setting [3]), 100 to 500 nM; on B-Raf kinase (Table 3) it was 100 to 500 nM.
Regarding `CNC(=O)c1cc(-c2cc(-c3cc(NC(=O)c4cc(C(F)(F)F)cnn4)ccc3C)cc(NCCO)n2)ccn1` [Example 18], the IC50 (with HCT-116 cells (setting [2]); in the assay with HCT-116 cells (Table 3); in the assay with Pa16c cells; on C-Raf kinase (setting [3]); on C-Raf kinase (Table 3); in assay [1]) was below 100 nM in each case. In addition, the IC50 in the assay on HPAF-II cells (setting [2]) was 100 to 500 nM; in the assay with HPAF-II cells (Table 3) it was 100 to 500 nM; at B-Raf kinase (setting [3]), below 100 nM; at B-Raf kinase (Table 3) it was below 100 nM.
Regarding `CNC(=O)c1cc(-c2cc(-c3cc(NC(=O)c4cc(C(F)(F)F)cnn4)ccc3C)ccn2)ccn1` [Example 9], the IC50 is 100 to 500 nM in the assay on HCT-116 cells (setting [2]); 100 to 500 nM in the assay with HCT-116 cells (Table 3); 100 to 500 nM in the assay with Pa16c cells; below 100 nM at C-Raf kinase (setting [3]); below 100 nM at C-Raf kinase (Table 3); 100 to 500 nM in assay [1]. The IC50 with HPAF-II cells (setting [2]) is 100 to 500 nM; with HPAF-II cells (Table 3), 100 to 500 nM; at B-Raf kinase (setting [3]), below 100 nM; at B-Raf kinase (Table 3), below 100 nM.
